molecular target: T1, human AT2 receptor (Homo sapiens, UniProt P50052); assay: AT2 receptor binding ([125I]CGP 42112A displacement, CHO-K1 membranes); settings: [125I]CGP 42112A 0.05 nM, membranes of CHO-K1 cells expressing human AT2 receptor; Ki from IC50 by Cheng-Prussoff equation; read-out: Ki
T1 construct: membranes prepared in house
T1 sequence (P50052 1-363): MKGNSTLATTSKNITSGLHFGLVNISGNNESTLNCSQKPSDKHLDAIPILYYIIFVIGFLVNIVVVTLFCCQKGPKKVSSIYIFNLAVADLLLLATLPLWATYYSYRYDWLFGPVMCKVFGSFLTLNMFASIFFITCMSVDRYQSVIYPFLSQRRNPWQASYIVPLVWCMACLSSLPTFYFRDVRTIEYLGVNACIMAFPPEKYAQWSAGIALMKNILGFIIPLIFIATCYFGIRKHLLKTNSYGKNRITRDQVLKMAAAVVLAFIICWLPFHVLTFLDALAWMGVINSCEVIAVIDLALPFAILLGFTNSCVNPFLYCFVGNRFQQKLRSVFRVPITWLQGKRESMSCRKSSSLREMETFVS
Source text: Reagents were purchased from Sigma-Aldrich, unless otherwise specified. Dialyzed fetal bovine serum (FBS) was from Life Technologies (cat. no. 10073772). Valiscreen® human angiotensin AT2 receptor cell line (cat. no. ES-070-C), [^125I]CGP 42112A (cat. no. NEX324025UC) and MicroScint™ 40 (cat. no. 6013641) were purchased from PerkinElmer. CGP 42112A (cat. no. 2569) and PD 123,319 ditrifluoroacetate (cat. no. 1361) were from Tocris Biosciences.
• 1. Growth medium • EX-CELL® CHO DHFR^− medium • 10% FBS, dialysed • 1 mM sodium pyruvate • 2 mM L-glutamine • 2. Harvesting buffer • PBS • 2 mM EDTA • 3. Suspension buffer • 50 mM Tris-HCl, pH 7.4 • 10 mM EDTA • 4. Resuspension buffer • 50 mM Tris-HCl, pH 7.4 • 0.1 mM EDTA • 0.1% sucrose • 5. Binding assay buffer • 50 mM Tris-HCl, pH 7.4 • 5 mM MgCl2 • 1 mM EDTA • 0.1% gelatin • 6. Wash buffer • 50 mM Tris-HCl, pH 7.4 Procedure for Membrane Preparation • Valiscreen® CHO-K1 cells stably expressing the human AT2 receptor were cultured in growth medium. • Cells were seeded into T-175 flasks and grown to 70-80% confluence. • Medium was removed from confluent flasks and cells were washed with warm PBS. • Cells were harvested by incubating with harvesting buffer for 10 min at 37° C., and then transferred to a centrifuge tube on ice. • Cells were centrifuged at 200 g for 5 min at 4° C. • Cell pellets were homogenised in ice-cold suspension buffer. • Homogenates were centrifuged at 40,000 g for 15 min at 4° C. • Pellets were resuspended in ice-cold resuspension buffer and centrifuged at 40,000 g for 15 min at 4° C. • Final pellets were homogenised in ice-cold resuspension buffer. • Protein concentrations were determined by BCA assay method with BSA as standard. Compound Preparation
Compounds were prepared from 10 mM stock solutions in 100% DMSO. Dilutions were made using electronic multichannel pipettes.
• Compounds dilutions were prepared in 100% DMSO at 100× final assay concentration. • Compounds were diluted in 100% DMSO to the appropriate maximal concentration. • 30 μL compound was added to row A. • 21.6 μL of 100% DMSO was added to rows B-H. • Transfer 10 μL from row A into row B (half log dilution). • Transfer 10 μL from row B into row C (half log dilution). • Transfer 10 μL from row C into row D (half log dilution). • Transfer 10 μL from row D into row E (half log dilution). • Transfer 10 μL from row E into row F (half log dilution). • Transfer 10 μL from row F into row G (half log dilution). • Transfer 10 μL from row G into row H (half log dilution). Working Plate Preparation (96-Well Plate) • Compounds were diluted 10-fold in assay buffer. • 10 μL compound solution from dose plate was transferred to corresponding well of working plate. • 90 μL assay buffer was added to the wells of working plate. • Working solutions contained 10% DMSO in assay buffer (1% DMSO final assay concentration). Controls • Total binding (high control) was determined in the absence of unlabelled ligand. A solution of 10% DMSO in assay buffer was prepared. • Non-specific binding (low control) was determined in the presence of a vast excess (10 μM) of PD 123,319. 1 mM stock solution of PD 123,319 in water was diluted 10-fold with 10% DMSO in assay buffer. Assay Plate Preparation (96-Well Plate)
15 μL compound solution was transferred to duplicate wells of assay plate. 5 compounds were tested per plate. 15 μL control solutions were transferred to columns 1 and 12 of assay plate.

Structure (SMILES)	Ki [nM]
C[C@@]1(C(=O)NS(=O)(=O)C2CC2)C[C@@H](N2CCCOc3cc(F)c(F)cc32)CN1C(=O)C(c1ccccc1)c1ccccc1 [Compound 42a, (2S,4R)—N-(cyclopropylsulfonyl)-4-(7,8-difluoro-3,4-dihydrobenzo[b][1,4]oxazepin-5(2H)-yl)-1-(2,2-diphenylacetyl)-2-methylpyrrolidine-2-carboxamide]	5
CN(C)S(=O)(=O)NC(=O)[C@@H]1C[C@H](N2CCCCc3cc(F)c(F)cc32)CN1C(=O)C(c1ccccc1)c1ccccc1 [Compound 40, (2S,4S)-4-(7,8-Difluoro-2,3,4,5-tetrahydro-1H-benzo[b]azepin-1-yl)-N—(N,N-dimethylsulfamoyl)-1-(2,2-diphenylacetyl)pyrrolidine-2-carboxamide]	9.3
O=C(O)[C@@H]1C[C@H](N2CCCS(=O)(=O)c3ccccc32)CN1C(=O)C(c1ccccc1)c1ccccc1 [Compound 34, (2S,4S)-4-(1,1-Dioxido-3,4-dihydrobenzo[b][1,4]thiazepin-5(2H)-yl)-1-(2,2-diphenylacetyl)pyrrolidine-2-carboxylic acid]	10
O=C(O)[C@@H]1C[C@@H](N2CCCCc3ccccc32)CN1C(=O)C(c1ccccc1)c1ccccc1 [Compound 22, (2S,4R)-1-(2,2-diphenylacetyl)-4-(2,3,4,5-tetrahydro-1H-benzo[b]azepin-1-yl)pyrrolidine-2-carboxylic acid]	9.8
NC(=O)[C@@H]1C[C@H](N2CCCCc3ccccc32)CN1C(=O)C(c1ccccc1)c1ccccc1 [Compound 15, (2S,4S)-1-(2,2-Diphenylacetyl)-4-(2,3,4,5-tetrahydro-1H-benzo[b]azepin-1-yl)pyrrolidine-2-carboxamide]	66.8
O=C(O)[C@@H]1C[C@H](N2CCc3ccccc3CC2)CN1C(=O)C(c1ccccc1)c1ccccc1 [Compound 45, (2S,4S)-1-(2,2-Diphenylacetyl)-4-(1,2,4,5-tetrahydro-3H-benzo[d]azepin-3-yl)pyrrolidine-2-carboxylic acid]	28.2
CN1CCN([C@H]2C[C@@H](C(=O)O)N(C(=O)C(c3ccccc3)c3ccccc3)C2)Cc2ccccc21 [Compound 17, (2S,4S)-1-(2,2-Diphenylacetyl)-4-(1-methyl-1,2,3,5-tetrahydro-4H-benzo[e][1,4]diazepin-4-yl)pyrrolidine-2-carboxylic acid]	178
CN(C)S(=O)(=O)NC(=O)[C@@H]1C[C@H](N2CCCOc3cc(F)c(F)cc32)CN1C(=O)C(c1ccccc1)c1ccccc1 [Compound 39, (2S,4S)-4-(7,8-Difluoro-3,4-dihydrobenzo[b][1,4]oxazepin-5(2H)-yl)-N—(N,N-dimethylsulfamoyl)-1-(2,2-diphenylacetyl)pyrrolidine-2-carboxamide]	10.2
O=C(NS(=O)(=O)C1CC1)[C@@H]1C[C@H](N2CCCCc3ccccc32)CN1C(=O)C(c1ccccc1)c1ccccc1 [Compound 43, (2S,4S)—N-(Cyclopropylsulfonyl)-1-(2,2-diphenylacetyl)-4-(2,3,4,5-tetrahydro-1H-benzo[b]azepin-1-yl)pyrrolidine-2-carboxamide]	8.6
C[C@@]1(C(=O)NS(=O)(=O)C2CC2)C[C@H](N2CCCOc3cc(F)c(F)cc32)CN1C(=O)C(c1ccccc1)c1ccccc1 [Compound 42b, (2S,4S)—N-(cyclopropylsulfonyl)-4-(7,8-difluoro-3,4-dihydrobenzo[b][1,4]oxazepin-5(2H)-yl)-1-(2,2-diphenylacetyl)-2-methylpyrrolidine-2-carboxamide]	11
O=C(O)[C@@H]1C[C@H](N2CCc3ccccc32)CN1C(=O)C(c1ccccc1)c1ccccc1 [Compound 29, (2S,4S)-1-(2,2-Diphenylacetyl)-4-(indolin-1-yl)pyrrolidine-2-carboxylic acid]	225
O=C(O)[C@@H]1C[C@@H](N2CCCCc3ccncc32)CN1C(=O)C(c1ccccc1)c1ccccc1 [Compound 28, (2S,4R)-1-(2,2-Diphenylacetyl)-4-(2,3,4,5-tetrahydro-1H-pyrido[3,4-b]azepin-1-yl)pyrrolidine-2-carboxylic acid]	33
C[C@@]1(C(=O)O)C[C@H](N2CCCCc3ccccc32)CN1C(=O)C(c1ccccc1)c1ccccc1 [Compound 30, (2S,4S)-1-(2,2-Diphenylacetyl)-2-methyl-4-(2,3,4,5-tetrahydro-1H-benzo[b]azepin-1-yl)pyrrolidine-2-carboxylic acid]	3.3

Other lines, results leading:

Ki [nM]	Structure (SMILES)
1.6	O=C(O)[C@@H]1C[C@@H](N2CCCOc3ccc(F)cc32)CN1C(=O)C(c1ccccc1)c1ccccc1 [Compound 25, (2S,4R)-1-(2,2-Diphenylacetyl)-4-(7-fluoro-3,4-dihydrobenzo[b][1,4]oxazepin-5(2H)-yl)pyrrolidine-2-carboxylic acid]
7	C[C@@]1(C(=O)O)C[C@H](N2CCCOc3cc(F)ccc32)CN1C(=O)C(c1ccccc1)c1ccccc1 [Compound 33, (2S,4S)-1-(2,2-Diphenylacetyl)-4-(8-fluoro-3,4-dihydrobenzo[b][1,4]oxazepin-5(2H)-yl)-2-methylpyrrolidine-2-carboxylic acid]
4.1	O=C(NS(=O)(=O)C1CC1)[C@@H]1C[C@H](N2CCCOc3ccc(F)cc32)CN1C(=O)C(c1ccccc1)c1ccccc1 [Compound 37, (2S,4S)—N-(Cyclopropylsulfonyl)-1-(2,2-diphenylacetyl)-4-(7-fluoro-3,4-dihydrobenzo[b][1,4]oxazepin-5(2H)-yl)pyrrolidine-2-carboxamide]
3.1	O=C(O)[C@@H]1C[C@H](N2CCCOc3cc(F)ccc32)CN1C(=O)C(c1ccccc1)c1ccccc1 [Compound 9, (2S,4S)-1-(2,2-diphenylacetyl)-4-(8-fluoro-3,4-dihydrobenzo[b][1,4]oxazepin-5(2H)-yl)pyrrolidine-2-carboxylic acid]
4.7	O=C(O)[C@@H]1C[C@H](N2CCCCc3ccc(F)cc32)CN1C(=O)C(c1ccccc1)c1ccccc1 [Compound 2, (2S,4S)-1-(2,2-Diphenylacetyl)-4-(8-fluoro-2,3,4,5-tetrahydro-1H-benzo[b]azepin-1-yl)pyrrolidine-2-carboxylic acid]
15.9	Cc1ccc2c(c1)N([C@@H]1C[C@@H](C(=O)O)N(C(=O)C(c3ccccc3)c3ccccc3)C1)CCCC2 [Compound 23, (2S,4R)-1-(2,2-Diphenylacetyl)-4-(8-methyl-2,3,4,5-tetrahydro-1H-benzo[b]azepin-1-yl)pyrrolidine-2-carboxylic acid]
9.8	O=C(O)[C@@H]1C[C@H](N2CCCCc3cc(F)ccc32)CN1C(=O)C(c1ccccc1)c1ccccc1 [Compound 5, (2S,4S)-1-(2,2-Diphenylacetyl)-4-(7-fluoro-2,3,4,5-tetrahydro-1H-benzo[b]azepin-1-yl)pyrrolidine-2-carboxylic acid]
1.4	O=C(O)[C@@H]1C[C@H](N2CCCOc3ccc(F)cc32)CN1C(=O)C(c1ccccc1)c1ccccc1 [Compound 8, (2S,4S)-1-(2,2-Diphenylacetyl)-4-(7-fluoro-3,4-dihydrobenzo[b][1,4]oxazepin-5(2H)-yl)pyrrolidine-2-carboxylic acid]

— US10065943B2, “Pyrrolidine derivatives as angiotensin II type 2 antagonists” (NOVARTIS AG, priority 2015, dated 2018)
